Values quoted from earlier work as cited in patent US6455574B1, “Therapeutic combination” (Pfizer Inc., priority 1997, dated 2002).

Experiments:
calcium channel = settings: see International Patent Application Number PCT/EP94/02697
[1] = test system: smooth muscle cell migration; settings: see International Patent Application Number PCT/EP95/00847

Structure (SMILES) | calcium channel blocking activity (calcium channel) | inhibition of smooth muscle cell migration [1]
CCOC(=O)C1=C(COCCN)NC(C)=C(C(=O)OC)[C@H]1c1ccccc1Cl (single isomer, unassigned) [R(+) isomer] | little or no | potent inhibitor
CCOC(=O)C1=C(COCCN)NC(C)=C(C(=O)OC)[C@@H]1c1ccccc1Cl (single isomer, unassigned) [S(−) isomer] | substantially confined to the S(−) isomer | –
